Source: PMC10518255, “A first-in-class pan-lysyl oxidase inhibitor impairs stromal remodeling and enhances gemcitabine response and survival in pancreatic cancer” (Nature Cancer, 2023)
“And” between values parts separate entries of the source, which are not always exact repeats. Equal entries are not always repeated.

Tested on: lysyl oxidase family members in KPC CAFs
Experiment: qRT-PCR of lysyl oxidase family members after treatment (Extended Data Figs. 2d, 3h)
Format: cell-based, mouse
Design: qRT-PCR LOX (Ct) / qRT-PCR LOX ΔCt / qRT-PCR LOX ΔΔCt KPC CAF / qRT-PCR LOXL1 ΔCt / qRT-PCR LOXL1 ΔΔCt KPC CAF / qRT-PCR LOXL2 ΔCt / qRT-PCR LOXL2 ΔΔCt KPC CAF / qRT-PCR LOXL3 ΔCt / qRT-PCR LOXL3 ΔΔCt KPC CAF / qRT-PCR LOXL4 ΔCt / qRT-PCR LOXL4 ΔΔCt KPC CAF: dose or concentration left out as unconfirmed
Protocol: RNA was isolated using the RNeasy mini kit (QIAGEN) according to the manufacturer’s instructions. Then, 1 μg of RNA was reverse transcribed using the Transcriptor First Strand cDNA Synthesis kit (Roche LifeScience) with anchored-oligo(dT)18 primers or the QuantiTect Reverse Transcription kit (QIAGEN). Real-time PCR was performed using the Roche LightCycler480 (Roche LifeScience) or QuantStudio 7 (Thermo Fisher). The following probe sets from Applied Biosystems, were used: LOX, Mm00495386; LOXL1, Mm01145738; LOXL2, Mm00804740; LOXL3, Mm01184867; LOXL4, Mm00446385; and GAPDH, Mm99999915. Primers and Roche Universal Probe Library probes used for RT–qPCR are described in Supplementary Table 4. Relative mRNA expression levels for each transcript of interest were normalized to GAPDH or ACTB (as indicated) and quantified using the comparative double ΔCt method (unless stated otherwise) for each biological replicate.
Extended Data Fig. 2 Characterization of cells derived from the KPC autochthonous model. a. Immunofluorescence staining of KPC CCs and KPC CAFs for the pancreatic epithelial cell marker CDH1 (green), DAPI (blue) and for the CAF marker α-SMA (yellow), DAPI (blue). Representative images from n = 3 biological independent samples. Scale bar = 30 μm. b. RNAseq reads for CAF and epithelial cell makers in KPC CAFs n = 3 biological independent samples. […] Data is presented as mean values ± SEM. […] Data presented as mean values +/− SD. […] Source data
Data presented as mean values +/− SD. f. […] Data presented as mean values +/− SD. […] Data presented as mean values +/− SD. […] Data presented as mean values +/− SD. Ordinary one-way ANOVA for multiple comparison test performed. Source data

[1] = 48 hour treatment, 30 M PXS-5505, replicates
[2] = 48 hour treatment, PXS-5505, replicates
[3] = 48 hour treatment, PXS-5505, vs GAPDH, replicates
[4] = 50 nM gemcitabine, 48 hours, per replicate
[5] = 50 nM gemcitabine, 48 hours, vs GAPDH, per replicate

Q: How did the “qRT-PCR LOXL1 (Ct)” value [1] turn out when Cl.Cl.NC/C=C(\F)CS(=O)(=O)c1cccc2cccnc12.O [PXS-5505, (Z)-3-fluoro-4-(quinolin-8-ylsulfonyl)but-2-en-1-amine dihydrochloride monohydrate] was run?
A: The value was 27.9242 and 27.0668.

Q: What about the “qRT-PCR LOXL2 (Ct)” value [1] of the same molecule?
A: The value was 25.5976 and 25.3053 and 25.9273.

Q: What about the “qRT-PCR LOXL3 (Ct)” value [1] of the same molecule?
A: Its value is 27.0409 and 26.0554 and 26.3059.

Q: What about the “qRT-PCR LOXL4 (Ct)” value [1] of the same molecule?
A: Its value is 27.6755 and 27.1763 and 27.4097.

Q: What about the “qRT-PCR LOX (Ct)” value [2] of the same molecule?
A: The value was 27.9362 and 27.041 and 26.9697.

Q: And the “qRT-PCR LOX ΔΔCt KPC CAF” value [2]?
A: Its value is 0.4495 and 1.003 and 0.5566.

Q: What about the “qRT-PCR LOXL1 ΔΔCt KPC CAF” value [2] of the same molecule?
A: Its value is 0.5108 and 0.4889 and 0.4223.

Q: And the “qRT-PCR LOXL2 ΔΔCt KPC CAF” value [2]?
A: The value was 0.6912 and 0.4472 and 0.4586.

Q: What about the “qRT-PCR LOXL3 ΔΔCt KPC CAF” value [2] of the same molecule?
A: The value was 0.6435 and 0.6732 and 0.893.

Q: And the “qRT-PCR LOXL4 ΔΔCt KPC CAF” value [2]?
A: Its value is 1.222 and 0.9127 and 1.225.

Q: And the “qRT-PCR LOX ΔCt” value [3]?
A: The value was 9.054 and 7.896 and 8.745.

Q: And the “qRT-PCR LOXL1 ΔCt” value [3]?
A: Its value is 8.779 and 8.842.

Q: And the “qRT-PCR LOXL2 ΔCt” value [3]?
A: Its value is 6.453 and 7.081 and 7.045.

Q: What about the “qRT-PCR LOXL3 ΔCt” value [3] of the same molecule?
A: Its value is 7.896 and 7.831 and 7.423.

Q: And the “qRT-PCR LOXL4 ΔCt” value [3]?
A: Its value is 8.531 and 8.952 and 8.527.

Q: And the “transcription of lysyl oxidase family members” value (PXS-5505 up to 300 µM)?
A: The value was “does not significantly alter transcription”.

Q: How did the “expression of lysyl oxidase family members” value (50 nM gemcitabine for 48 hours) turn out when Nc1ccn([C@@H]2O[C@H](CO)[C@@H](O)C2(F)F)c(=O)n1 [Gem, gemcitabine] was run?
A: The value was “increased”.

Q: And the “LOX ΔΔCt CC” value [4]?
A: The value was 1.655 and 2.327 and 2.145.

Q: What about the “LOXL1 ΔΔCt CC” value [4] of the same molecule?
A: Its value is 1.866 and 1.895 and 1.813.

Q: What about the “LOXL2 ΔΔCt CC” value [4] of the same molecule?
A: Its value is 2.3261 and 2.2233 and 1.33.

Q: What about the “LOXL3 ΔΔCt CC” value [4] of the same molecule?
A: The value was 1.66 and 2.86 and 2.05.

Q: And the “LOXL4 ΔΔCt CC” value [4]?
A: The value was 2.014 and 1.617 and 1.18.

Q: And the “LOX ΔCt” value [5]?
A: Its value is 6.157 and 5.668 and 5.782.

Q: What about the “LOXL1 ΔCt” value [5] of the same molecule?
A: The value was 8.043 and 8.021 and 8.085.

Q: And the “LOXL2 ΔCt” value [5]?
A: The value was 4.354 and 4.419 and 5.16.

Q: And the “LOXL3 ΔCt” value [5]?
A: The value was 4.977 and 5.26 and 5.74.

Q: What about the “LOXL4 ΔCt” value [5] of the same molecule?
A: The value was 6.2696 and 6.5867 and 7.04.
